Assay results taken from the NIST ThermoML archive (doi:10.1021/acs.jced.7b00768).
Numbers after ± are expanded uncertainties.

Experiments:
[1] = Crystal; DSC
[2] = Molar enthalpy of transition or fusion; conditions: Crystal; DSC

Triple point temperature [1]: 412.2 ± 0.8 K
Molar enthalpy of transition or fusion [2]: 12.2 ± 0.335 kcal/mol
SMILES: C[N+](C)(C)C[C@H](O)CC(=O)[O-].O=C(O)/C=C/C(=O)O [L-carnitine fumarate]
